Results taken from article PMC8610377, “Target identification for small-molecule discovery in the FOXO3a tumor-suppressor pathway using a biodiverse peptide library” (Cell Chemical Biology, 2021).

Tests used:
9J10/14-3-3ε interaction [1] = biological target: T1, 9J10/14-3-3ε interaction (Homo sapiens, UniProt P62258); experiment: FP competition, TAMRA-p9J10Min binding to 14-3-3ε; settings: 10nM TAMRA-p9J10Min, His-14-3-3ε 1.5 μM, top concentration 200 μM, 0.4% DMSO; mean of three independent experiments; read-out: IC50, FP
T1 construct: A synthetic gene construct encoding full length human 14-3-3ε; made in house; host or cells: E. coli BL21(DE3)
T1 sequence (P62258 1-255): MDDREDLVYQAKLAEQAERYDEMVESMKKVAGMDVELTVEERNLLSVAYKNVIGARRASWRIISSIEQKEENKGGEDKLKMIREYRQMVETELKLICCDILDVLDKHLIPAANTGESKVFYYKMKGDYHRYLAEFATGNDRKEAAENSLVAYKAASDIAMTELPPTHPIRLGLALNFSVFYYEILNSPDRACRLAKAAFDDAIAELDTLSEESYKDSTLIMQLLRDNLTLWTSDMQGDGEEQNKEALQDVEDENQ
Experimental: Protein purity was visualized by running SDS-PAGE. […] Compound dilution plates, black 384 well NBS assay plates and tip racks were loaded into the Cytomat as indicated by the scheduling software. […] Test compounds were diluted to 3X final concentration in the dilution plates. 10 μL of diluted compound was added into each well of the assay plate followed by 10μL of […]-3-3ε and 10μL of TAMRA-p9J10Min. Plates were incubated at room temperature for 20 min on the robot's deck or in the Cytomat before the Fluorescence Polarisation was read using the BMG PheraStar plate reader. Test compounds were assayed in triplicate. […] DMSO controls were run alongside all experimental compounds and % inhibition normalised to these controls. All other experimental conditions were as described above.

14-3-3ε = biological target: T2, 14-3-3ε (Homo sapiens, UniProt P62258); experiment: STD-NMR; assay type: binding; settings: 100 μM 9J10, 10 μM 14-3-3ε, 2% d6-DMSO
T2 sequence (P62258 1-255): T1 sequence (P62258 1-255)
Experimental: (§1) Protein purity was visualized by running SDS-PAGE.
1H NMR and STD spectra were recorded with a Bruker Avance-III HD 600 MHz at 298 K. Bruker TopSpin software was used to acquire and process the NMR data. NMR samples were prepared in D2O, with 100 μM 9J10 peptide (LNRTPGRRRN(p-Serine)N-acid) (Sigma-Aldrich), and 10 μM 14-3-3ε protein. For STD NMR measurements standard Bruker pulse sequence stddiffesgp.3 was used, the on-resonance frequency was set to be 0 ppm, and the off-resonance frequency at −40 ppm. The number of scans was typically 64, both the saturation pulses and relaxation delay were set to be 5 s and the power of the shaped pulse for saturation was set at 40 dB. Experiments with the varying concentrations of CU7218 were performed by mixing appropriate volume of the compound in DMSO and the final DMSO concentration was adjusted to 2.0% by using d6-DMSO.

[2] = system: polo-box domain of human polo-like kinase 1 (PLK1); experiment: selectivity: substrate recognition by polo-box domain; assay type: binding
9J10/14-3-3ε interaction [3] = biological target: T1, 9J10/14-3-3ε interaction; experiment: competitive microscale thermophoresis (MST); assay type: binding; settings: 20 nM labeled 14-3-3ε, 1 μM cognate peptide (EC80), 2% DMSO, 25°C; mean of three independent experiments
Experimental: as §1
The 14-3-3ε protein was labeled with NT-647-NHS fluorescent dye using the Monolith Protein Labeling Kit (Cat# MO-L011, NanoTemper Technologies). Assays were carried out in 10 mM Hepes, 150 mM NaCl and 0.01% Tween 20. For the direct binding assay, 10 μL of labeled protein at a final concentration of 20 nM was mixed with 10 μL of cognate peptide. For the competitive assay, 10 μL of labeled protein at a final concentration of 20 nM was mixed with 1 μM of cognate peptide at the EC80 concentration determined by prior titration using a 16-point serial dilution by direct-binding MST. […] An initial ‘‘CapillaryScan’’ was performed to scan for fluorescence across the length of the capillary tray to determine the exact position of each capillary before the MST measurement was started. Test compound in 2% final DMSO concentration was assayed at 16 different concentrations by serial dilution, and data were analyzed using NanoTemper analysis software with ‘‘T-jump + Thermophoresis’’ settings. The change in thermophoresis between different experimental conditions was expressed as the change in the normalized fluorescence (ΔFnorm), which is defined as Fhot/Fcold (F-values correspond to average fluorescence values between defined areas in the curve under steadystate conditions under control (Fcold) or experimental (Fhot) conditions). […]

- IC50 (9J10/14-3-3ε interaction [1]): 111 µM
- lowest CU7218 concentration markedly reducing the 9J10 STD signal (14-3-3ε; tested 50-250 μM): ≥ 150 µM
- disruption of substrate recognition by PLK1 polo-box domain [2]: failed to disrupt substrate recognition
- IC50 (9J10/14-3-3ε interaction [3]): 26.5 µM
SMILES: Cc1c(C(=O)O)sc2[nH]c(=S)[nH]c(=O)c12 [CU7218]
- 9J10 STD signal intensity with CU7218 (14-3-3ε): markedly reduced the 9J10 STD signal intensity
